Entries after “also recorded” stand apart in the source; their conditions may differ.
Experiments:
p-Myc(T58/S62) = test: Immunoblot analysis of Myc phosphorylation; format: cell-based, human; settings: DLD1 cells; for effect on rapamycin-induced Myc phosphorylation: BX912 2.5 μM or PIK90 5 μM with rapamycin 10 nM
p-AKT (S473) = test: Immunoblot analysis of AKT S473 phosphorylation; format: cell-based, human; settings: DLD1 cells; for effect on AKT S473 phosphorylation: BX912 2.5 μM or PIK90 5 μM with rapamycin 10 nM, 48 hr
SW480 and DLD1 cells = test: G2/M phase arrest by PI staining and FACS in SW480 and DLD1 cells; format: cell-based, human; settings: BX912 2.5 μM or PIK90 with rapamycin 10 nM, 48 h
Experimental: (§1) In brief, 1000 cells were seeded in 96-well plate and the cell number was measured following manufacturer's instruction. To detect the senescence in DLD1-tet on cells, cells were treated with Dox for 48 hr and SA-β-Gal staining was performed according to the protocol of Senescence Detection kit (BioVision). Cell cycle analysis was done by DNA content quantification.
The cells were fixed with 70% ethanol and stained with propidium iodide (50 μg/ml) staining. The stained cells were analyzed by FACScalibur (BD Bioscience) and quantified by using CellQuest software (BD bioscience).

SW480 cells = test: Morphologies of SW480 cells under treatment; format: cell-based, human
[1] = system: HEK-TERV cells transformed with PDK1, Myc, shPTEN or PI3K E545K; test: Cell viability / proliferation of transformed HEK-TERV cells with PLK1 inhibitors; format: cell-based, human
DLD1 and SW480 cells [2] = test: Cell viability of DLD1 and SW480 cells under drug combinations; format: cell-based, human; settings: BX912 2.5 μM plus rapamycin 10 nM, 5-day cell viability assay
Experimental: Cell viability was measured using CellTiter-Glo™ Luminescent Cell Viability Assay (Promega).
as §1

DLD1 and SW480 cells [3] = test: Monolayer dense foci / colony formation of DLD1 and SW480 cells; format: cell-based, human; settings: BX912 2.5 μM plus rapamycin 10 nM, 2-week colony formation assay
Experimental: For DLD1 and HCT116 inducible cells foci formation assay, 1×10^4 cells were seeded on 6-well plate with or without treatment with Dox or rapamcycin. […]

PPP2R2B = test: RT-PCR analysis of PPP2R2B expression; format: cell-based, human; settings: DLD1 cells, 5 μM for 3 days
Experimental: For RT-PCR, total RNA was reverse-transcribed using oligo(dT)12-18 primer (SEQ ID NO: 6)with Superscript II reverse transcriptase (Invitrogen). 100 ng of cDNA was used for PCR. The primers PPP2R2B F: 5′ […] 3′ (SEQ ID NO: 7) and PPP2R2B R: 5′ (SEQ ID NO: 8) […] 3′ were used to amplify the PPP2R2B cDNA.

[4] = cited from earlier work
[5] = system: behavioral tasks and aggregate formation; settings: mouse model of HD; cited from earlier work
human cancers = settings: also with intermittent dosing schedule; cited from earlier work

SMILES: COc1ccc2c(c1OC)N=C(NC(=O)c1cccnc1)N1CCN=C21 [PIK90]
- effect on rapamycin-induced Myc phosphorylation (p-Myc(T58/S62); 48 hr): unable to inhibit rapamycin-induced Myc phosphorylation
- effect on AKT S473 phosphorylation (p-AKT (S473)): effectively abolished the AKT S473 phosphorylation
- G2/M arrest in combination with rapamycin (SW480 and DLD1 cells): not
- morphological change (SW480 cells): not

SMILES: COc1cc2ncn(-c3cc(OCc4ccccc4C(F)(F)F)c(C(N)=O)s3)c2cc1OC [GW843682X]
- selectivity of inhibition of proliferation / cell viability (dose-response) ([1]; HEK-PDK1 and HEK-Myc vs HEK-PMN and HEK-shPTEN cells, 4 days): more selectively decrease the cell viability of PDK1 or Myc-transformed cells; also recorded: more selectively inhibit the proliferation of PDK1 or Myc-transformed HEK cells
- growth inhibition in kinase inhibitor screen ([1]; HEK-PDK1 cells compared to HEK-vector control cells (PMN)): selective growth inhibition effect

SMILES: O=C(Nc1cccc(Nc2ncc(Br)c(NCCc3cnc[nH]3)n2)c1)N1CCCC1 [BX912]
- effect on rapamycin-induced Myc phosphorylation (p-Myc(T58/S62); 48 hr): abolished rapamycin-induced Myc phosphorylation
- effect on AKT S473 phosphorylation (p-AKT (S473)): had no much effect on AKT S473
- G2/M arrest in combination with rapamycin (SW480 and DLD1 cells): synergized with rapamycin to induce strong G2/M arrest
- loss of cell viability in combination with rapamycin (DLD1 and SW480 cells [2]): synergistic loss of cell viability
- loss of cell viability in combination with rapamycin (colony formation) (DLD1 and SW480 cells [3]): synergistic loss of cell viability
- morphological change (SW480 cells): induced a morphological change similar to that seen upon PPP2R2B re-expression

SMILES: Cn1c(=O)n(-c2ccc(C(C)(C)C#N)cc2)c2c3cc(-c4cnc5ccccc5c4)ccc3ncc21 [BEZ235]
- Myc phosphorylation (p-Myc(T58/S62); BEZ 235 100 nM, 48 hr): induced Myc phosphorylation

SMILES: Nc1ncn([C@H]2C[C@H](O)[C@@H](CO)O2)c(=O)n1 [5-aza-dC]
- PPP2R2B expression (PPP2R2B): re-expression of PPP2R2B

SMILES: CO[C@H]1C[C@@H]2CC[C@@H](C)[C@@](O)(O2)C(=O)C(=O)N2CCCC[C@H]2C(=O)O[C@H]([C@H](C)C[C@@H]2CC[C@@H](OC(=O)C(C)(CO)CO)[C@H](OC)C2)CC(=O)[C@H](C)/C=C(\C)[C@@H](O)[C@@H](OC)C(=O)[C@H](C)C[C@H](C)/C=C/C=C/C=C/1C [CCI 779, rapamycin 42-[2,2-bis(hydroxymethyl)propionate]]
- water solubility [4]: water soluble
- behavioral performance and aggregate formation [5]: improved performance on 4 different behavioral tasks and decreased aggregate formation
- growth of cancers (human cancers): inhibit the growth of a diverse range of cancer types

SMILES: Oc1cccc(-c2nc(N3CCOCC3)c3oc4ncccc4c3n2)c1 [PIK-103]
- Myc phosphorylation (p-Myc(T58/S62); 0.5 μM): enhanced Myc phosphorylation
- AKT S473 phosphorylation (p-AKT (S473); 0.5 μM): reduced AKT 5473 phosphorylation
